The test system of data set [1] is MCF7. Kind of data set: Protac activity at VHL/ER in human MCF7 cells assessed as induction of ER degradation at 1 uM measured after 24 hrs by Western blot analysis. The data set is classed as cell-based.
For data set [2], the target named is T1, Protein cereblon/Estrogen receptor (Homo sapiens, UniProt P03372+Q96SW2). Kind of data set: Protac activity at CRBN/ER in human MCF7 cells assessed as induction of ER degradation at 1 uM measured after 24 hrs by Western blot analysis. The data set is classed as cell-based. In general terms: Immunoblotting shows a protein as a band on a membrane.
Target sequence in this assay (P03372 whole entry, looked up): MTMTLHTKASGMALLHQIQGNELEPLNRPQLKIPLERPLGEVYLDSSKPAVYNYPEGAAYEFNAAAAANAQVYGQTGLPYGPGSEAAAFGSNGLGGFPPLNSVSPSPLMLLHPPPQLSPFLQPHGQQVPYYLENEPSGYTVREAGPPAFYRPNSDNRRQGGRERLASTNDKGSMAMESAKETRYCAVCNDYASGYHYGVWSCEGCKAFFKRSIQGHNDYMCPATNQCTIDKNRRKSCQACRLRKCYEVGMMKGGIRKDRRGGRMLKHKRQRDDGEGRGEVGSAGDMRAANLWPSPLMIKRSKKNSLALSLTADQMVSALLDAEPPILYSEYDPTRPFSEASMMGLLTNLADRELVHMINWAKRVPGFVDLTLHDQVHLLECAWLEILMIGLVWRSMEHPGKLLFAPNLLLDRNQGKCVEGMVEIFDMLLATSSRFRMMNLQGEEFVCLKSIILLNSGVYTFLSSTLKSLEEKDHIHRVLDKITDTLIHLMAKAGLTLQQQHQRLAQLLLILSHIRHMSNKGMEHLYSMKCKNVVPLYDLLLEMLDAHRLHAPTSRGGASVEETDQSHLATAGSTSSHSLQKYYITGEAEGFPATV
Target sequence in this assay (Q96SW2 whole entry, looked up): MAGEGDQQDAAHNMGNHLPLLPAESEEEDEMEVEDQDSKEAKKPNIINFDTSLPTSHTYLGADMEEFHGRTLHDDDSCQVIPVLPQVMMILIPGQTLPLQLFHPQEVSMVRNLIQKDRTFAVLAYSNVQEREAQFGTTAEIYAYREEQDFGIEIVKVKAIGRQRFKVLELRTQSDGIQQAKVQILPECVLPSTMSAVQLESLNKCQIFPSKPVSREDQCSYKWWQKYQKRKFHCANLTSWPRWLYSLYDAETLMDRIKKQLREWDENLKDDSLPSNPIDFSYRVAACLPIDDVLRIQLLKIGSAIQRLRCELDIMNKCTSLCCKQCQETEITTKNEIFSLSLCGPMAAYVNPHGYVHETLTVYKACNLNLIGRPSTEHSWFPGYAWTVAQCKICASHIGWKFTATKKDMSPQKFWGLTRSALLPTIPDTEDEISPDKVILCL
Data set [3] concerns MCF7. Kind of data set: Antiproliferative activity against human MCF7 cells assessed as reduction in cell viability measured after 7 days by celltiter-glo luminescence assay. The settings on record: for pIC50: MCF7, 168 h; for Activity: time 7.0 day. The class given is functional, cell-based. On the technique in general: ATP-based viability assays read luminescence as a measure of living cells.

Data set [4] deals with T1, Protein cereblon/Estrogen receptor. The data set is described as follows: Protac activity at CRBN/ER in human MCF7 cells assessed as induction of ER degradation measured after 24 hrs by Western blot analysis. The data set is classed as cell-based.
For data set [5] the target is unchanged. The data set is described as follows: Protac activity at CRBN/ER in human MCF7 cells assessed as induction of ER degradation at 10 uM measured after 24 hrs by Western blot analysis. The class given is cell-based.
Target sequence in this assay (P03372 whole entry, looked up): as the sequence (P03372 whole entry, looked up) above
Target sequence in this assay (Q96SW2 whole entry, looked up): as the sequence (Q96SW2 whole entry, looked up) above
A short description of data set [6]: Cmax in CD-1 mouse at 2 mg/kg, ip by LC-MS/MS analysis. The data set is classed as ADME, organism-based. To be noted: in vivo.
The nature of data set [7]: Tmax in CD-1 mouse at 2 mg/kg, ip by LC-MS/MS analysis. The class given is ADME, organism-based. The settings on record: in vivo.
Data set [8] in a line: Half life in CD-1 mouse at 2 mg/kg, ip by LC-MS/MS analysis. The class given is ADME, organism-based. To be noted: in vivo.
A short description of data set [9]: Observed apparent […] clearance in CD-1 mouse at 2 mg/kg, ip by LC-MS/MS analysis. The settings on record: in vivo. The class given is ADME, organism-based.
Data set [10] can be described thus: Toxicity in CD-1 mouse assessed as adverse effect at 2 mg/kg, ip. The data set is classed as organism-based. To be noted: in vivo.

Molecules are shown by their SMILES. pIC50: −log10 of the molar value. The source made the active and inactive calls. The rule behind the calls is not given here.

Regarding `Cc1ncsc1-c1ccc([C@H](C)NC(=O)[C@@H]2C[C@@H](O)CN2C(=O)[C@@H](NCC2CCN(c3ccc(C4=C(c5ccc(Cl)cc5Cl)CCCc5cc(C(=O)O)ccc54)cc3)CC2)C(C)(C)C)cc1`, the Activity entry with MCF7 [1] was “Not active; Degradation Ability Was Poorer When Compared With Compounds Whose E3 Ligase Ligand Was Crbn”.

As to `COC(=O)c1ccc2c(c1)CCCC(c1ccc(Cl)cc1Cl)=C2c1ccc(OC2CCN(CCCN[C@H](C(=O)N3C[C@H](O)C[C@H]3C(=O)N[C@@H](C)c3ccc(-c4scnc4C)cc3)C(C)(C)C)C2)cc1` (some centres undefined), the Activity result with MCF7 [1] was “Not active; Degradation Ability Was Poorer When Compared With Compounds Whose E3 Ligase Ligand Was Crbn”.

For the compound `COC(=O)c1ccc2c(c1)CCCC(c1ccc(Cl)cc1Cl)=C2c1ccc(N2CCC(CNCCOCCCOCCCOCCNC(=O)COc3ccc4c(c3)C(=O)N(C3CCC(=O)NC3=O)C4=O)CC2)cc1` (centres undefined), the outcome in data set [2] was Active.

As to `COC(=O)c1ccc2c(c1)CCCC(c1ccc(Cl)cc1Cl)=C2c1ccc(OC2CCN(CCCNC(=O)C3CCN(C4CCN(C(=O)CNc5cccc6c5CN(C5CCC(=O)NC5=O)C6=O)CC4)CC3)C2)cc1` (centres undefined), in the data set on MCF7 [3], the pIC50 is 6.11 and the Activity entry was “Dose-dependent-effect”.

Turning to `COC(=O)c1ccc2c(c1)CCCC(c1ccc(Cl)cc1Cl)=C2c1ccc(N2CCN(CC3CCN(CC4CCN(C(=O)CNc5ccc6c(c5)C(=O)N(C5CCC(=O)NC5=O)C6)CC4)CC3)CC2)cc1` (centres undefined), in data set [2], the result was Active. Also, the Activity entry in data set [4] was “Dose-dependent-effect”; with MCF7 [3], “Dose-dependent-effect”; in data set [10], “Non-toxic”. For the same compound, the DC50 in data set [4] came to 0.095 µM. Moreover, in data set [5], the outcome was inactive. Further, the pIC50 in the data set on MCF7 [3] is 7.52. The compound also yielded a Cmax in [6] of 0.677 µg/mL. Moreover, in data set [7], the Tmax is 0.83 h. The same compound gave a half-life in data set [8] of 11.2 h. The CL/F in [9] was 1.55 L/h/kg.

With `C[C@]12CC[C@@H]3c4ccc(O)cc4C[C@@H](CCCCCCCCC[S+]([O-])CCCC(F)(F)C(F)(F)F)[C@H]3[C@@H]1CC[C@@H]2O` (some centres undefined) [FULVESTRANT], in the data set with MCF7 [3], the pIC50 is over 9.30. Further, the Cmax in data set [6] was 0.237 µg/mL. In addition, in data set [7], the Tmax came to 0.83 h. In [8], the half-life is 1.47 h. In data set [9], the CL/F was 2.75 L/h/kg.

Regarding `COC(=O)c1ccc2c(c1)CCCC(c1ccc(Cl)cc1Cl)=C2c1ccc(N2CCC(CN[C@H](C(=O)N3C[C@H](O)C[C@H]3C(=O)N[C@@H](C)c3ccc(-c4scnc4C)cc3)C(C)(C)C)CC2)cc1`, the Activity entry with MCF7 [1] is “Not active; Degradation Ability Was Poorer When Compared With Compounds Whose E3 Ligase Ligand Was Crbn”.

Consider `COC(=O)c1ccc2c(c1)CCCC(c1ccc(Cl)cc1Cl)=C2c1ccc(OC2CCN(CCCNC(=O)CN3CCN(C(=O)CNc4cccc5c4CN(C4CCC(=O)NC4=O)C5=O)CC3)C2)cc1` (centres undefined), for which, in the data set with MCF7 [3], the pIC50 was 7.10 and the Activity result was “Dose-dependent-effect”.

Broadly, the pIC50 is the IC50 on a negative log10 scale, so that one unit is a factor of ten. As a reminder, the DC50 is the midpoint of the concentration-degradation curve. As a reminder, the Cmax is the highest concentration seen after dosing. What is called Tmax is the time at which the peak concentration occurs. In general, half-life refers to how long it takes for the measured level to halve. Low values mean fast loss, high ones slow loss. One may read the CL/F as the apparent clearance, not corrected for the fraction that reaches the circulation.

These data come from ChEMBL document CHEMBL6109113, “Design, synthesis, and biological evaluation of novel PROTACs compounds with good ERα degradation ability” (Bioorg Med Chem, 2025).
